Data set [1] is described as follows: Stability in stomach: hydrolysis rate at pH 2.0, 37° C. To be noted: 1% solution, 10 mM hydrochloric acid (pH 2.0). The class given is physicochemical. As for the experimental part:
The stability of a substance in the gastric passage can be simulated by determining the hydrolysis rate at pH 2.0. Sucrose and 1-kestose are used as controls. […] Samples are taken from the reaction batch after […], 120 and 180 min and are analyzed by basic anion exchange chromatography, HPAEC.

For data set [2], the target named is T1, saccharase/isomaltase enzyme complex (SI complex) (Sus scrofa, UniProt P56729).
T1 construct: are isolated from a pig intestine by the method of H. Heymann; from tissue; host or cells: pig intestine (mucosa of the small intestine)
T1 sequence (P56729 with tags, fused parts or gaps): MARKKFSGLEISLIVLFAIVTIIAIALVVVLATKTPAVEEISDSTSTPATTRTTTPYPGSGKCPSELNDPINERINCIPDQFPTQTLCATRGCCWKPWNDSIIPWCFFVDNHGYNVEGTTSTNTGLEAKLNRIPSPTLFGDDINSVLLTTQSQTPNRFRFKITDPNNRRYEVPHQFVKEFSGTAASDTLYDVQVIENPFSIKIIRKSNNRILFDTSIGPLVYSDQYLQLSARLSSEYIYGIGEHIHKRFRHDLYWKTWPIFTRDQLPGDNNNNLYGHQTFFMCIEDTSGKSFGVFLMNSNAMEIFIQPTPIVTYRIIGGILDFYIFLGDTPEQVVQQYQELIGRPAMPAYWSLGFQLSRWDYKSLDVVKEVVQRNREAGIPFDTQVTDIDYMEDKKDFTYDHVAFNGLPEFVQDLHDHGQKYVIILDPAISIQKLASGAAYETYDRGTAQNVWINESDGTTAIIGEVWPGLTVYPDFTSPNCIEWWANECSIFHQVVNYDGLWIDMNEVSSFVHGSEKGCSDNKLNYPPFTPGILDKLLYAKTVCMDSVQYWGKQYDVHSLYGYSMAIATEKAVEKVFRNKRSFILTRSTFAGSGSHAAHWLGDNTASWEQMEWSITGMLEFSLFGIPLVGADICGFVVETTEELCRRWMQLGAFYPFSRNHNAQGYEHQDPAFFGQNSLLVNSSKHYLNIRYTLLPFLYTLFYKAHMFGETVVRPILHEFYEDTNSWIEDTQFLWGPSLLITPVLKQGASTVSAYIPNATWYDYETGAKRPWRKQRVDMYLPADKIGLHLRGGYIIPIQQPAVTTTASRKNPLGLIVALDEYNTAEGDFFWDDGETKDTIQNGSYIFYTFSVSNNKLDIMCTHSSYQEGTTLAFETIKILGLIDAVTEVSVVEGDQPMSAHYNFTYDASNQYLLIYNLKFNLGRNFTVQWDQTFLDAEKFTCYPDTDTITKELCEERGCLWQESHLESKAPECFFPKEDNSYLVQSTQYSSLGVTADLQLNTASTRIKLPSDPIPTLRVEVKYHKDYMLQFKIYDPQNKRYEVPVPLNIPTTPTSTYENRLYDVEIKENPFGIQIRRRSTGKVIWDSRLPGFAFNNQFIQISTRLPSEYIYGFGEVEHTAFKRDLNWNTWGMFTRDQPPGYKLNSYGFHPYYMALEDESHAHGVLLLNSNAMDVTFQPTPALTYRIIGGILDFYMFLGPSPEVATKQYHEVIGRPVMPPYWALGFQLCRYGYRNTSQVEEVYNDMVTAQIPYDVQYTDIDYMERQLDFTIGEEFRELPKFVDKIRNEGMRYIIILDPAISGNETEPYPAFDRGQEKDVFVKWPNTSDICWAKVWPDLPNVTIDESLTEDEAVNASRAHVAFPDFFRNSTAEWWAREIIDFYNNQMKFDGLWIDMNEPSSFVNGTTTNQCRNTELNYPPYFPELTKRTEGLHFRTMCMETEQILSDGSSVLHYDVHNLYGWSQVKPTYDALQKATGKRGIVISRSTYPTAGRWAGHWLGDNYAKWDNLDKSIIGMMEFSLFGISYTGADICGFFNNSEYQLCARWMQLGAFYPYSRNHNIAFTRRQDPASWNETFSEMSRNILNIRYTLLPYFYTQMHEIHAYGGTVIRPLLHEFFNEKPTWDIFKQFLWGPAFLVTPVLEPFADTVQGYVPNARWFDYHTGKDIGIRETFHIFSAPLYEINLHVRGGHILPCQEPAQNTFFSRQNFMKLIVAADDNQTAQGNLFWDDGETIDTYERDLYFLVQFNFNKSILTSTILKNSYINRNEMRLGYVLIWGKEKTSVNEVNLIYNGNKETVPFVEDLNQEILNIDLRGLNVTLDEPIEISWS
In words: Stability with respect to intestinal α-glucosidases: saccharase/isomaltase. To be noted: 1% solution, pH 7.0, 0.7 U enzyme complex, 37° C., incubation time 120 min. The format is in vitro ADME, pig. From the text:
(§1) The enzyme complexes saccharase/isomaltase and glucoamylase/maltase that are present on the mucosa in the small intestine in vivo serve to break down disaccharides like maltose and sucrose that reach the small intestine and also to break down maltooligosaccharides to monosaccharides to some degree, and as such these components are absorbed into the blood circulation via the intestinal wall. The enzyme complexes saccharase/isomaltase (SI complex) and glucoamylase/maltase (GM complex) are isolated from a pig intestine by the method of H. […] (solution 2 to solution 6), mixed and incubated at 37° C. The reaction is stopped after 2 h by heating to 95° C. for 15 min. The monosaccharides that have formed and the undegraded saccharides in the relative batches are quantitatively determined by HPAEC.

Data set [3] relates to glucoamylase/maltase enzyme complex (GM complex). In words: Stability with respect to intestinal α-glucosidases: glucoamylase/maltase. The class given is in vitro ADME, pig. The following applies: 1% solution, pH 7.0, 0.7 U enzyme complex, 37° C., incubation time 120 min.
From the text: as §1

For the compound `OC[C@H]1O[C@@](CO)(OC[C@@]2(O[C@H]3O[C@H](CO)[C@@H](O)[C@H](O)[C@H]3O)O[C@H](CO)[C@@H](O)[C@@H]2O)[C@@H](O)[C@@H]1O` [Example 1-Kestose, 1-Kestose], the “Hydrolysis rate (%)” value came to 0% in data set [1] (incubation time 0 min), 11% in data set [1] (incubation time 60 min), 25% in data set [1] (incubation time 120 min) and 36% in data set [1] (incubation time 180 min).

In the case of `OC[C@H]1O[C@H](O[C@H]2[C@H](O)[C@@H](O)C(O)O[C@@H]2CO)[C@H](O)[C@@H](O)[C@@H]1O` (mixture of isomers) [Maltose], the “Hydrolysis rate (%), incubation with Saccharase/Isomaltase” value in data set [2] is reported as 95%. In addition, the “Hydrolysis rate (%), incubation with Glucoamylase/Maltase” value in data set [3] amounted to 96%.

For `OC[C@H]1O[C@@](CO)(O[C@H]2O[C@H](CO)[C@@H](O)[C@H](O)[C@H]2O)[C@@H](O)[C@@H]1O` [Sucrose], the “Hydrolysis rate (%)” value in data set [1] (incubation time 0 min) is on record as 0%; in data set [1] (incubation time 60 min), 2%; in data set [1] (incubation time 120 min), 5%; in data set [1] (incubation time 180 min) it was 8%. For the same compound, the “Hydrolysis rate (%), incubation with Saccharase/Isomaltase” value in data set [2] is 98%.

Source of the values: US20050238777A1, “Condensed palatinose and method for producing the same” (priority 2002, published 2005).
